Test results: ChEMBL document CHEMBL5385971, “Identification of novel phenylalanine derivatives bearing a hydroxamic acid moiety as potent quorum sensing inhibitors” (RSC Med Chem, 2024)
Activity calls are given as the source filed them. The rule behind the calls is not given here.

Experiments:
[1] = system: Pseudomonas aeruginosa; experiment: Antibiofilm activity against Pseudomonas aeruginosa PA14 assessed as inhibition of biofilm biomass at 30 uM incubated for 48 hrs by crystal violet staining based analysis relative to control; assay type: functional
[2] = system: Pseudomonas aeruginosa; experiment: Growth inhibition of Pseudomonas aeruginosa transfected with lasB-gfp; assay type: functional, organism-based
[3] = system: Chromobacterium violaceum; experiment: Inhibition of Chromobacterium violaceum ATCC 31532 quorum sensing receptor CviR at 30 uM incubated for 24 hrs by absorbance based microplate reader analysis relative to control
[4] = Inhibition of quorum sensing system in Pseudomonas aeruginosa transfected with lasB-gfp incubated for 20 hrs by fluorescence based multilabel plate reader analysis
[5] = Potency index, ratio of 4NPO IC50 to test compound IC50 for inhibition of quorum sensing system in Pseudomonas aeruginosa transfected with lasB-gfp incubated for 20 hrs by fluorescence based multilabel plate reader analysis
[6] = system: Chromobacterium violaceum; experiment: Inhibition of Chromobacterium violaceum ATCC 31532 quorum sensing receptor CviR assessed as fold change at 30 uM incubated for 24 hrs by absorbance based microplate reader analysis relative to 4NPO

Row | Compound | inhibition [3] [%] | IC50 [4] [µM] | Ratio IC50 [5] | fold change (FC) [6] | inhibition at 30 µM [1] [%] | growth inhibition (GI) [2]
1 | O=C(Nc1ccc(Cl)cc1)c1ccc(C(=O)N[C@@H](Cc2ccccc2)C(=O)NO)cc1 | < 1 | > 100 |  |  | < 1 | inactive
2 | O=C(Nc1ccccc1)Nc1ccc(C(=O)N[C@@H](Cc2ccccc2)C(=O)NO)cc1 | < 1 | > 100 |  |  | < 1 | inactive
3 | O=C(Nc1ccccc1)c1ccc(C(=O)N[C@@H](Cc2ccccc2)C(=O)NO)cc1 | < 1 | 92.3 |  |  | 11 | inactive
4 | O=C(N[C@@H](Cc1ccccc1)C(=O)NO)c1ccc(COc2ccccc2)cc1 | 11 | 83.5 |  |  | 20 | inactive
5 | O=C(N[C@@H](Cc1ccccc1)C(=O)NO)c1ccc(Cl)c(Cl)c1 | 35 | > 100 |  |  | < 1 | inactive

Now those with a lower IC50 [4], led by results:

Row | inhibition [3] [%] | IC50 [4] [µM] | Ratio IC50 [5] | fold change (FC) [6] | Compound | inhibition at 30 µM [1] [%] | growth inhibition (GI) [2]
6 | 79 | 7.12 | 4 | 1.5 | Cc1ccc(S(=O)(=O)Nc2ccc(C(=O)N[C@@H](Cc3ccccc3)C(=O)NO)cc2)cc1 | 75 | inactive
7 | 65 | 9.44 |  |  | O=C(N[C@@H](Cc1ccccc1)C(=O)NO)c1ccc(C2CCCCC2)cc1 | 55 | inactive
8 | 58 | 10 |  |  | O=C(N[C@@H](Cc1ccccc1)C(=O)NO)c1cc(Cl)ccc1F | 40 | inactive
9 | < 1 | 50.2 |  |  | O=C(N[C@@H](Cc1ccccc1)C(=O)NO)c1ccc2ccccc2n1 | < 1 | inactive
